ChEMBL document CHEMBL4715866, “A Chemical Probe for Dark Kinase STK17B Derives Its Potency and High Selectivity through a Unique P-Loop Conformation” (J Med Chem, 2020)
In brackets after ≈: the same amount, converted by molar mass.

Key:
[1] = target: T1, Calcium/calmodulin-dependent protein kinase kinase 1 (Homo sapiens, UniProt Q8N5S9); experiment: Inhibition of human CAMKK1 in presence of ATP at Km level
[2] = target: T2, Hepatocyte growth factor receptor (Homo sapiens, UniProt P08581); experiment: Binding affinity to human MET assessed as displacement of immobilized ligand by KINOMEscan scanMAX assay relative to control
T2 sequence (P08581 whole entry): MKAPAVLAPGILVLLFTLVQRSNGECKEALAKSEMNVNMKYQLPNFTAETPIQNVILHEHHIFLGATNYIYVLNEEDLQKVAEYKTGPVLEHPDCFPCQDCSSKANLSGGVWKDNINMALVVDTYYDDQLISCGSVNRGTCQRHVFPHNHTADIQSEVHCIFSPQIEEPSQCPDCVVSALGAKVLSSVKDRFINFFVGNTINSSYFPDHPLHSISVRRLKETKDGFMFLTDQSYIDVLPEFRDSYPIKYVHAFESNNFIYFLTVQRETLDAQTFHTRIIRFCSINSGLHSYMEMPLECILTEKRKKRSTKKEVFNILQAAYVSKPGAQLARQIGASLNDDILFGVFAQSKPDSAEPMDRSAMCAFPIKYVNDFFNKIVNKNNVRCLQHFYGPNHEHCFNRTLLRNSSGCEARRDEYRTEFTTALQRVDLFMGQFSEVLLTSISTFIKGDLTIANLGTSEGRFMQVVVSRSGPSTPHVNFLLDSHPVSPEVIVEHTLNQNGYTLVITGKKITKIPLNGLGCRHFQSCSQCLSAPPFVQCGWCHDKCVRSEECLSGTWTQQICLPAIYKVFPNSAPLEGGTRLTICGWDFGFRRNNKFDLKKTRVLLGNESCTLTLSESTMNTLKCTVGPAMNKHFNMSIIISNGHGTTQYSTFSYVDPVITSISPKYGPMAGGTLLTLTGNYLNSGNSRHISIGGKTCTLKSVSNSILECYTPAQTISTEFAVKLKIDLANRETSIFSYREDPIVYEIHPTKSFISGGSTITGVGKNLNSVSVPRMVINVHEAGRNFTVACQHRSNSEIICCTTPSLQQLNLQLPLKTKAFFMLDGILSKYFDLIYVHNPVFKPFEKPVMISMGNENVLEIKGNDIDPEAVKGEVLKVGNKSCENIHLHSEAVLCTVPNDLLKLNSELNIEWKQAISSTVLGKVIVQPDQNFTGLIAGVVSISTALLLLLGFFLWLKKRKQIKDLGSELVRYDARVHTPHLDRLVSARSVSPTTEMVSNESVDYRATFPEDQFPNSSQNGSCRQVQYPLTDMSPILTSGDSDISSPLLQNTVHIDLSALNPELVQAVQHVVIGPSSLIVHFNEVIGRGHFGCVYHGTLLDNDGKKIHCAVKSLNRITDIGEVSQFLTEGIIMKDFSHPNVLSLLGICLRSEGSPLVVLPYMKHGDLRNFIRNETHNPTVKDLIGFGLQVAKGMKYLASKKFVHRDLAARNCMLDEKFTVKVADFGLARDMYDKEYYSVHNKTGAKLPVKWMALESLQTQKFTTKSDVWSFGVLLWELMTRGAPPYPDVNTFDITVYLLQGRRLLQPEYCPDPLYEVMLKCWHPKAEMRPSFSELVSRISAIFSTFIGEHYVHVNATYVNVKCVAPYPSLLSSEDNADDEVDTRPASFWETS

[3] = target: T3, Serine/threonine-protein kinase 17B (Homo sapiens, UniProt O94768); experiment: Inhibition of human STK17B in presence of ATP at Km level
T3 sequence (O94768 whole entry): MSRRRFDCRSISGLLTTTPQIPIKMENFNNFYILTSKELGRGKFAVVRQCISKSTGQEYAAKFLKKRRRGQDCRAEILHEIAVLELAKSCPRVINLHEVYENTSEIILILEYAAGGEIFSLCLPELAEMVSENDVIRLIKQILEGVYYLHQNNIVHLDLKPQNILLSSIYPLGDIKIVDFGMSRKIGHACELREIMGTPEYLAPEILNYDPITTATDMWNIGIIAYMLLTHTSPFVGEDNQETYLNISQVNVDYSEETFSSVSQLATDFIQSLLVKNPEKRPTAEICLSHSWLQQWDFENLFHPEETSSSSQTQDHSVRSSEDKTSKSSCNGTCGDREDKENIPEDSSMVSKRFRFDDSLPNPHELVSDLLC

Wee1-like protein kinase [4] = target: T4, Wee1-like protein kinase (Homo sapiens, UniProt P30291); experiment: Inhibition of human WEE1 in presence of ATP at Km level
T4 sequence (P30291 whole entry): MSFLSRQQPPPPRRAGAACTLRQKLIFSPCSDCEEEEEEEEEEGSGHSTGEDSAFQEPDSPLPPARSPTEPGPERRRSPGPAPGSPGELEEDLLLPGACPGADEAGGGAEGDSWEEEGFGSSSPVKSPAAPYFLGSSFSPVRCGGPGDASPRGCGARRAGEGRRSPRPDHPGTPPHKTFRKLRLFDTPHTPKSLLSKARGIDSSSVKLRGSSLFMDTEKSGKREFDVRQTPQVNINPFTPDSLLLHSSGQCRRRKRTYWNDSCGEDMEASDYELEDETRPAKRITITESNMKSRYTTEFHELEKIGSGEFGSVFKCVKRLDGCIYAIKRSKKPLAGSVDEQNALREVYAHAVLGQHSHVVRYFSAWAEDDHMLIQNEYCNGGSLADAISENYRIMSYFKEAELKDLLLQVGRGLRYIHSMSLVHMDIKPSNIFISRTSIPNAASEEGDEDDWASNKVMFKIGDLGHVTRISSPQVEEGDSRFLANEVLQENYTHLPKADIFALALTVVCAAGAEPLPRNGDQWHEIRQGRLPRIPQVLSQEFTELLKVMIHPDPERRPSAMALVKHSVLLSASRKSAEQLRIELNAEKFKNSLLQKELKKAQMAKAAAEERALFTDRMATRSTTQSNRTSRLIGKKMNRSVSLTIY

[5] = target: T1, Calcium/calmodulin-dependent protein kinase kinase 1; experiment: Binding affinity to human CAMKK1 assessed as displacement of immobilized ligand by KINOMEscan scanMAX assay relative to control
[6] = target: T5, Serine/threonine-protein kinase 38-like (Homo sapiens, UniProt Q9Y2H1); experiment: Binding affinity to human STK38L assessed as displacement of immobilized ligand by KINOMEscan scanMAX assay relative to control
T5 sequence (Q9Y2H1 whole entry): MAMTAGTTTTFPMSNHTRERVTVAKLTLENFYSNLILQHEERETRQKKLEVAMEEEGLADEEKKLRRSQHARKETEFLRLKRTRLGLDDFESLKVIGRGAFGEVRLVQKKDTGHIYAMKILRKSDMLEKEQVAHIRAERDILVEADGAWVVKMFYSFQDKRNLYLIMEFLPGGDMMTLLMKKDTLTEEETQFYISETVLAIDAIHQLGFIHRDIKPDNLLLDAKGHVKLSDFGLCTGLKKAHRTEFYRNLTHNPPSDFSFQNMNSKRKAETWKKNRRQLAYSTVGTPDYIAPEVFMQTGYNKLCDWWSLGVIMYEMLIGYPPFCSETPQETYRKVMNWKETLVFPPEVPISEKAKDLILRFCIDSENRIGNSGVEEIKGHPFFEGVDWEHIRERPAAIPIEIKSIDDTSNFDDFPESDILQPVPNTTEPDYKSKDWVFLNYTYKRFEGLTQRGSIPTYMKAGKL

[7] = target: T6, Serine/threonine-protein kinase 17A (Homo sapiens, UniProt Q9UEE5); experiment: Binding affinity to human STK17A incubated for 2 hrs by nano-BRET assay based cellular target engagement assay
T6 sequence (Q9UEE5 whole entry): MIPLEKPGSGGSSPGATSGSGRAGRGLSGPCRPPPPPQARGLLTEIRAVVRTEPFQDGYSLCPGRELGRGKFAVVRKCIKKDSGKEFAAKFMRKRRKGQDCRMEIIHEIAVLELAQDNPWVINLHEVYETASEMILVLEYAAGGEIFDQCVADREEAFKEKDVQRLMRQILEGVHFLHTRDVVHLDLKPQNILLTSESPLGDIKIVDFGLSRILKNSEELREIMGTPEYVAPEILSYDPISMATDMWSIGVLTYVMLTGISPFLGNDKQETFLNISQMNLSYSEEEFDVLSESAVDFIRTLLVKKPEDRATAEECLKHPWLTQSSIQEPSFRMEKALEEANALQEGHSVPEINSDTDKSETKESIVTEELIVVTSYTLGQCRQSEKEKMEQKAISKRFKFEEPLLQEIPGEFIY

[8] = target: T5, Serine/threonine-protein kinase 38-like; experiment: Binding affinity to human STK38L incubated for 2 hrs by nano-BRET assay based cellular target engagement assay
[9] = target: T3, Serine/threonine-protein kinase 17B; experiment: Inhibition of N-terminal His-tagged STK17B kinase domain (25 to 329 residues) (unknown origin) expressed in Escherichia coli incubated for 90 mins by Kinase seeker split luciferase assay
Aurora kinase B [10] = target: T7, Aurora kinase B (Homo sapiens, UniProt Q96GD4); experiment: Inhibition of human AURKB in presence of ATP at Km level
T7 sequence (Q96GD4 whole entry): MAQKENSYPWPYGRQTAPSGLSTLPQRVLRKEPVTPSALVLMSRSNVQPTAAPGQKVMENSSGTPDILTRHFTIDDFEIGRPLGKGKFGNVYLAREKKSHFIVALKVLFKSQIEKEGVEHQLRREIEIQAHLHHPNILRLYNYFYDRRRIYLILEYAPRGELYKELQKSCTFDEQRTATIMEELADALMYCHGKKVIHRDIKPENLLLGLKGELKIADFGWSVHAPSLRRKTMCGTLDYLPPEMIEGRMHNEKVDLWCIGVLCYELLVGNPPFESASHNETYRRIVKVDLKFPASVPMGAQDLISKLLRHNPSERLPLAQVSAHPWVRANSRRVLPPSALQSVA

[11] = target: T6, Serine/threonine-protein kinase 17A; experiment: Inhibition of human STK17A in presence of ATP at Km level
[12] = target: T3, Serine/threonine-protein kinase 17B
[13] = Stability in mouse liver microsomes assessed as compound remaining at 0.1 mM in presence of NADPH regeneration system after 30 mins by LC-MS/MS analysis; type: ADME, Microsome; settings: read-out: Stabilty
[14] = target: T3, Serine/threonine-protein kinase 17B; experiment: Binding affinity to human STK17B assessed as displacement of immobilized ligand by KINOMEscan scanMAX assay relative to control
[15] = target: T3, Serine/threonine-protein kinase 17B; experiment: Binding affinity to N-terminal His-tagged STK17B kinase domain (25 to 329 residues) (unknown origin) expressed in Escherichia coli by KINOMEscan scanMAX assay
[16] = target: T5, Serine/threonine-protein kinase 38-like; experiment: Inhibition of human STK38L in presence of ATP at Km level
[17] = target: T8, Serine/threonine-protein kinase Nek6 (Homo sapiens, UniProt Q9HC98); experiment: Binding affinity to human NEK6 assessed as displacement of immobilized ligand by KINOMEscan scanMAX assay relative to control
T8 sequence (Q9HC98 whole entry): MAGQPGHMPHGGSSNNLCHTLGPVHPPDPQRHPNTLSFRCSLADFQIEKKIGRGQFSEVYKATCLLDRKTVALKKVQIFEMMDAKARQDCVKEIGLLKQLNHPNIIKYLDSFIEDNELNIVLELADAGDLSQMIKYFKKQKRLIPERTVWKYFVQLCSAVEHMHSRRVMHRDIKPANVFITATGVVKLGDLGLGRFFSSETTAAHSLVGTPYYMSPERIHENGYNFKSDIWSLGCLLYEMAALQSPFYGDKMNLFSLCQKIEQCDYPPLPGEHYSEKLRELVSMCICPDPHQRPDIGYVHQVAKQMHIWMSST

[18] = target: T9, Calcium/calmodulin-dependent protein kinase kinase 2 (Homo sapiens, UniProt Q96RR4); experiment: Inhibition of human CAMKK2 in presence of ATP at Km level
T9 sequence (Q96RR4 whole entry): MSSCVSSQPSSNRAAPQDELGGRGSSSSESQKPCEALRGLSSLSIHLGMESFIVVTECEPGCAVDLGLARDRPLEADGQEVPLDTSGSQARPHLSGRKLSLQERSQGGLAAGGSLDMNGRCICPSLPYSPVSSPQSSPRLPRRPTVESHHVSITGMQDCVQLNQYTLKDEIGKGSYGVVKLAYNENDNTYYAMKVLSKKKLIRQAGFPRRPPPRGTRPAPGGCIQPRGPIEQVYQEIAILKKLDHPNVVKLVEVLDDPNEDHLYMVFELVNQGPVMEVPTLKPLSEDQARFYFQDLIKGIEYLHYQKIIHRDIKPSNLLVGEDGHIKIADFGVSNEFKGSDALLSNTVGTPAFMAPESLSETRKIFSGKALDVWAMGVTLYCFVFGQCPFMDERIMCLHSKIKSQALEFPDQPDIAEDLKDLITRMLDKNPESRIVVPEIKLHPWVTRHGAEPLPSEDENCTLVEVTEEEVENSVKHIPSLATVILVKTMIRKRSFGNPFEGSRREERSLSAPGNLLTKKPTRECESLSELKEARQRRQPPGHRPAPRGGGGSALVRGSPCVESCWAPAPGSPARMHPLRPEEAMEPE

Aurora kinase B [19] = target: T7, Aurora kinase B; experiment: Binding affinity to human AURKB incubated for 2 hrs by nano-BRET assay based cellular target engagement assay
[20] = target: T6, Serine/threonine-protein kinase 17A; experiment: Binding affinity to human STK17A assessed as displacement of immobilized ligand by KINOMEscan scanMAX assay relative to control
[21] = target: T10, Serine/threonine-protein kinase pim-2 (Homo sapiens, UniProt Q9P1W9); experiment: Binding affinity to human PIM2 assessed as displacement of immobilized ligand by KINOMEscan scanMAX assay relative to control
T10 sequence (Q9P1W9 whole entry): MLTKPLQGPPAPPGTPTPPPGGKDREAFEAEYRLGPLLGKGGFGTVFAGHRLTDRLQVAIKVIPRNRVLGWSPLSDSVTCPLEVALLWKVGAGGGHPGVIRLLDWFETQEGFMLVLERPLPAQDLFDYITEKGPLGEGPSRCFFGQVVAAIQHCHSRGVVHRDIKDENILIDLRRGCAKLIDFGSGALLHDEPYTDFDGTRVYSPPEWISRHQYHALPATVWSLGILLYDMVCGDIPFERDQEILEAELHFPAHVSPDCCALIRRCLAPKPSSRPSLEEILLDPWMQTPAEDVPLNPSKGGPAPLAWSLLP

[22] = Kinetic solubility in pH 7.4 PBS; type: physicochemical; settings: read-out: Kinetic_solubility
[23] = target: T9, Calcium/calmodulin-dependent protein kinase kinase 2; experiment: Binding affinity to human CAMKK2 assessed as displacement of immobilized ligand by KINOMEscan scanMAX assay relative to control
[24] = target: T10, Serine/threonine-protein kinase pim-2; experiment: Inhibition of human PIM2 in presence of ATP at Km level
[25] = target: T2, Hepatocyte growth factor receptor; experiment: Inhibition of human MET in presence of ATP at Km level
Wee1-like protein kinase [26] = target: T4, Wee1-like protein kinase; experiment: Binding affinity to human WEE1 assessed as displacement of immobilized ligand by KINOMEscan scanMAX assay relative to control
[27] = target: T8, Serine/threonine-protein kinase Nek6; experiment: Inhibition of human NEK6 in presence of ATP at Km level
Aurora kinase B [28] = target: T7, Aurora kinase B; experiment: Binding affinity to human AURKB assessed as displacement of immobilized ligand by KINOMEscan scanMAX assay relative to control
[29] = target: T9, Calcium/calmodulin-dependent protein kinase kinase 2; experiment: Binding affinity to human CAMKK2 incubated for 2 hrs by nano-BRET assay based cellular target engagement assay

T1 sequence (Q8N5S9 whole entry): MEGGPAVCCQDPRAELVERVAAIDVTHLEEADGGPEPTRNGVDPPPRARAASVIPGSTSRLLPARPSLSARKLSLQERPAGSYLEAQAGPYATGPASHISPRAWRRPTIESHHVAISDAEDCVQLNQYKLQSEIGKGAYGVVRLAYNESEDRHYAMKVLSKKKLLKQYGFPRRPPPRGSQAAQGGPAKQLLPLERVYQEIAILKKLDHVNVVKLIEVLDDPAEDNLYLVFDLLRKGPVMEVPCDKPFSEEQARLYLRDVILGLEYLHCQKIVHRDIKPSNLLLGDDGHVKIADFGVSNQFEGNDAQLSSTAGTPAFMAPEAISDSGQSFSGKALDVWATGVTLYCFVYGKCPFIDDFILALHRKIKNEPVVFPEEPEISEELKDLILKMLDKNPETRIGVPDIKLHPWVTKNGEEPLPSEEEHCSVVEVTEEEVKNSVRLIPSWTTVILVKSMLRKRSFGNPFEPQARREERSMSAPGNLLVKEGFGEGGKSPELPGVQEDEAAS

O=C(O)CSc1ncnc2cc(-c3cc4ccccc4s3)sc12
IC50 [1]: 5200 nM | Kd [2]: > 10000 nM | IC50 [3]: 34 nM | IC50 (Wee1-like protein kinase [4]): > 10000 nM | Kd [5]: 49 nM | Kd [6]: > 10000 nM | IC50 [7]: > 10000 nM | IC50 [8]: > 10000 nM | IC50 [9]: 34 nM | IC50 (Aurora kinase B [10]): 8900 nM | IC50 [11]: 4700 nM | IC50 [12]: 190 nM | remaining at 0.5 h, 100 µM [13]: 63% | Kd [14]: 5.6 nM | Kd [15]: 5.6 nM | IC50 [16]: > 10000 nM | Kd [17]: > 10000 nM | IC50 [18]: > 10000 nM | IC50 (Aurora kinase B [19]): > 10000 nM | Kd [20]: 440 nM | Kd [21]: 1500 nM | solubility kinetic [22]: 5 µg/mL (≈ 13.9 µM) | Kd [23]: 21 nM | IC50 [24]: > 10000 nM | IC50 [25]: > 10000 nM | Kd (Wee1-like protein kinase [26]): > 10000 nM | IC50 [27]: > 10000 nM | Kd (Aurora kinase B [28]): 110 nM | IC50 [29]: 2400 nM
